Source: the supplement of paper PMC12463676, “Small-molecule dissolution of stress granules by redox modulation benefits ALS models” (Nature Chemical Biology, 2025)

Tests used:
potassium arsenate = compound: O=[As]([O-])(O)O.[K+] [potassium arsenate]; experiment: thermal stability z-score vs DMSO; higher = more thermally stabilized by treatment; conditions: HeLa; arsenate concentration 1 mM
Procedure: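 Cellular thermal proteome profiling in HeLa cells treated with 1 mM arsenate for 1 h (DMSO pretreatment), heated to ten temperatures (37-66.3 °C). Soluble protein was quantified by TMT mass spectrometry relative to DMSO controls; the thermal stability score was transformed to a z-score; mean of n = 3 experiments.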

lipoamide = compound: NC(=O)CCCCC1CCSS1 [lipoamide]; experiment: as above; conditions: HeLa, lipoamide concentration 100 µM
Procedure: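 Cellular thermal proteome profiling in HeLa cells. Cells were treated with 100 µM lipoamide for 1 h, with or without 1 mM arsenate for a further 1 h, then heated to ten temperatures (37-66.3 °C), and soluble protein was quantified by TMT mass spectrometry relative to 0.1% DMSO controls. The thermal stability score (sum of log2 fold changes minus the abundance score) was transformed to a z-score; mean of n = 3 experiments.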

[1] = arsenate co-treatment: 1 mM arsenate 1 h
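Further: each temperature applied for 3 min, abundance score taken as mean log2 fold change at the two lowest temperatures, z-score obtained by mean subtraction and division by SD.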

Chain of UniProt Q9NZM3 (Q9NZM3 whole entry): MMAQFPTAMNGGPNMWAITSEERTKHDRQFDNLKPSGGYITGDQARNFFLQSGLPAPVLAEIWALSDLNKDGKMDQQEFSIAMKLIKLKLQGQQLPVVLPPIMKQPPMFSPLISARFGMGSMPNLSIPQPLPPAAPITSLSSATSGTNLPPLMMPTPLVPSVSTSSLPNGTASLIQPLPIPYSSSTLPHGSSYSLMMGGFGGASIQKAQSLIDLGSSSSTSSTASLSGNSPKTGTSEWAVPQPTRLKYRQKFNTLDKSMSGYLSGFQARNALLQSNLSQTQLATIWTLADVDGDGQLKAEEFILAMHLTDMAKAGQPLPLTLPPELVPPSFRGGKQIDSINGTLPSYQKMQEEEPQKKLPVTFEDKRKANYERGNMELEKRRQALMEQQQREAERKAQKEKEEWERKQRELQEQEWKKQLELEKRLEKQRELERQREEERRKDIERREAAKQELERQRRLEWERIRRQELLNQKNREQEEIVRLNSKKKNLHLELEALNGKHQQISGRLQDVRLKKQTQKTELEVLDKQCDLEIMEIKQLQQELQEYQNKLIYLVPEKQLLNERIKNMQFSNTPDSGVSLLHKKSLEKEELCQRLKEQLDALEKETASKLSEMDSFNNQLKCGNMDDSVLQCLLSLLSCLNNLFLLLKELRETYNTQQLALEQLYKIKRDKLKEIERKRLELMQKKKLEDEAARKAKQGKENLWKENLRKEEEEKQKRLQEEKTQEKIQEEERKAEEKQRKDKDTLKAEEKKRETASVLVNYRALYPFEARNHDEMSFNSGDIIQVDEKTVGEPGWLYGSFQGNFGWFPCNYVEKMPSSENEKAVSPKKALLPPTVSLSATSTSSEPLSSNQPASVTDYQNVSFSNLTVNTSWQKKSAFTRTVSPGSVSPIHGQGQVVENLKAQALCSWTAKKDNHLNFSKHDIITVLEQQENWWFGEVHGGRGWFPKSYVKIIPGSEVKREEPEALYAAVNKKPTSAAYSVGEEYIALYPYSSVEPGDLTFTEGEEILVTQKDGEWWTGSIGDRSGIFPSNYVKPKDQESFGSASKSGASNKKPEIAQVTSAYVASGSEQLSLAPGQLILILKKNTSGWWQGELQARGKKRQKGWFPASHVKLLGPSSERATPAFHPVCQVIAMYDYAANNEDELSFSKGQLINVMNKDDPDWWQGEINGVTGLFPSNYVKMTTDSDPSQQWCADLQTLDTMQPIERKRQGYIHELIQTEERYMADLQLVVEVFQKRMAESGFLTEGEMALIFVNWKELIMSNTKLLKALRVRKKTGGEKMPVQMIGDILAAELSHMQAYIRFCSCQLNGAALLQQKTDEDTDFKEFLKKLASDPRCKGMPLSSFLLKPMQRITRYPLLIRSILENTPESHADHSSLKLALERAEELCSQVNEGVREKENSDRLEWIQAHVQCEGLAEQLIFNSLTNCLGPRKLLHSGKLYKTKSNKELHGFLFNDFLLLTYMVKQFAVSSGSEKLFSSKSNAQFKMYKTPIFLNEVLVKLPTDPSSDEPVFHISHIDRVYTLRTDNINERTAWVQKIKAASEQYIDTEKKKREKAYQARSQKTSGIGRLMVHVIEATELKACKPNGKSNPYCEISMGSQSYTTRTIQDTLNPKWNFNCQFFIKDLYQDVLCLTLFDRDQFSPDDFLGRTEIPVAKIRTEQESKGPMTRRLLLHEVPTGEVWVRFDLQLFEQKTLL
Chain of UniProt Q9H3F6 (Q9H3F6 whole entry): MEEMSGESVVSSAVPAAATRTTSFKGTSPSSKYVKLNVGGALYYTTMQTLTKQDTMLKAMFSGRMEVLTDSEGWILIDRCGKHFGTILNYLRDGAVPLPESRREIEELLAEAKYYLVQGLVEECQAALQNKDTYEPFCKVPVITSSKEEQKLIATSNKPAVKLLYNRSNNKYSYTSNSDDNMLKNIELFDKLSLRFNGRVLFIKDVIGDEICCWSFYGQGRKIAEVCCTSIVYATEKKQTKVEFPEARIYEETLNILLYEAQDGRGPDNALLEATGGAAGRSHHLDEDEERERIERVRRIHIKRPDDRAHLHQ
Chain of UniProt Q12768 (Q12768 whole entry): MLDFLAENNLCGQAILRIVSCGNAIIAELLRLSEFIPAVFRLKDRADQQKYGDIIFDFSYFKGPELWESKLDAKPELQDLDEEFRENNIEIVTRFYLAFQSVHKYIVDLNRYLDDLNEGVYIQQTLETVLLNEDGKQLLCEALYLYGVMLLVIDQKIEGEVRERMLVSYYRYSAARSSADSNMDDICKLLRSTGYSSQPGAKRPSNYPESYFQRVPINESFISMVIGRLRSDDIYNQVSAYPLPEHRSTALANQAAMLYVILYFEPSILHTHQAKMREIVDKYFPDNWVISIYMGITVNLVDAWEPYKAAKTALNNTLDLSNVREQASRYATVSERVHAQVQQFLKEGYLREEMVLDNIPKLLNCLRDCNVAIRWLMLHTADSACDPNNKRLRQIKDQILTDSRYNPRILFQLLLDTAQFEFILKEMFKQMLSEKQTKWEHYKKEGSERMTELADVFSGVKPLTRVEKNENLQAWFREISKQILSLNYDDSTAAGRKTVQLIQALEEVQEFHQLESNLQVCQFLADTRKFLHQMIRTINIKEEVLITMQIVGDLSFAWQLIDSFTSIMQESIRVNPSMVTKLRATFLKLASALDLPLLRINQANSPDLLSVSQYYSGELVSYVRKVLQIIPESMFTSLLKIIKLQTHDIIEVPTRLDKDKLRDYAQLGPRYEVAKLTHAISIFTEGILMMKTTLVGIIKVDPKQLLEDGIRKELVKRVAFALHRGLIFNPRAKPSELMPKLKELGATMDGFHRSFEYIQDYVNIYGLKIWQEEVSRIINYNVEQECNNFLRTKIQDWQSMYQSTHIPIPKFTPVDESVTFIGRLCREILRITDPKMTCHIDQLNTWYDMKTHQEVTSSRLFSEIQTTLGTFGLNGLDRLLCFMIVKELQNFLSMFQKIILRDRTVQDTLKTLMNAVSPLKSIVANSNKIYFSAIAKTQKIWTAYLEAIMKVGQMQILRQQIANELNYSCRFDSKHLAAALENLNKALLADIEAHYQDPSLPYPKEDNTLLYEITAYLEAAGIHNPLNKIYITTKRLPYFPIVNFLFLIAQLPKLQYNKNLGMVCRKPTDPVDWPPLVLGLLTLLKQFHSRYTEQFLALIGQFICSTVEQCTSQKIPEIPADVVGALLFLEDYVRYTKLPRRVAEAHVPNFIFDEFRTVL
Chain of UniProt Q63ZY3 (Q63ZY3 whole entry): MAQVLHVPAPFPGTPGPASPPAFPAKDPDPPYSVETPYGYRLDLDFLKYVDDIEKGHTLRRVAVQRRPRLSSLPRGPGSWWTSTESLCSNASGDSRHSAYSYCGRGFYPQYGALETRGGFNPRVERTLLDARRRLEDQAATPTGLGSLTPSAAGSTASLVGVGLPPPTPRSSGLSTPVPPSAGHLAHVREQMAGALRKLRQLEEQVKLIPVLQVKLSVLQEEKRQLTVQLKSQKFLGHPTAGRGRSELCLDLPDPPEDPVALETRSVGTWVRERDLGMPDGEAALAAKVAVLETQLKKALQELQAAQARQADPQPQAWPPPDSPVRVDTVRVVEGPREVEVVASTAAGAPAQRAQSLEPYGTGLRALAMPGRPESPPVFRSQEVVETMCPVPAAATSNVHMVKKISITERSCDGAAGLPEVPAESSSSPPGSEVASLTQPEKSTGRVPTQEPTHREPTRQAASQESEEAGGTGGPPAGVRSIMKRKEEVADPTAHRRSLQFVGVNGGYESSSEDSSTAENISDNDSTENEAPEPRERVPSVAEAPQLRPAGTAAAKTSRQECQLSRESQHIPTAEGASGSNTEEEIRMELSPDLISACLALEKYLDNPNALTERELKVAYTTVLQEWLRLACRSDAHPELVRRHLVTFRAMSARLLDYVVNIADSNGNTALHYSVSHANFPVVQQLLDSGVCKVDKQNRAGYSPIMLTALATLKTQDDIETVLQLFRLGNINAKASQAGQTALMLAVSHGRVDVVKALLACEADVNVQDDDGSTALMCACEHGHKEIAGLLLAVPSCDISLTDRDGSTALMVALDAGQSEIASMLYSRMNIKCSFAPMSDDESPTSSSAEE
Chain of UniProt P17275 (P17275 whole entry): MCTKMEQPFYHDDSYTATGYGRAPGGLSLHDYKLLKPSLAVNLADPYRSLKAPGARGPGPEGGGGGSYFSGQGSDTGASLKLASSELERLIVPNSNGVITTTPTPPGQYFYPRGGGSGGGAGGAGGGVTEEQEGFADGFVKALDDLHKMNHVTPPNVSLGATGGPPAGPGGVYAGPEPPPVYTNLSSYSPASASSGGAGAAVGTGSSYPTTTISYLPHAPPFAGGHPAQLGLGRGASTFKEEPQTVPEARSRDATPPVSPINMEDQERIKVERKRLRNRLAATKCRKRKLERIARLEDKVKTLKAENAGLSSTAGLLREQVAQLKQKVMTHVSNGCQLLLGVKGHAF
Chain of UniProt Q9BVA0 (Q9BVA0 whole entry): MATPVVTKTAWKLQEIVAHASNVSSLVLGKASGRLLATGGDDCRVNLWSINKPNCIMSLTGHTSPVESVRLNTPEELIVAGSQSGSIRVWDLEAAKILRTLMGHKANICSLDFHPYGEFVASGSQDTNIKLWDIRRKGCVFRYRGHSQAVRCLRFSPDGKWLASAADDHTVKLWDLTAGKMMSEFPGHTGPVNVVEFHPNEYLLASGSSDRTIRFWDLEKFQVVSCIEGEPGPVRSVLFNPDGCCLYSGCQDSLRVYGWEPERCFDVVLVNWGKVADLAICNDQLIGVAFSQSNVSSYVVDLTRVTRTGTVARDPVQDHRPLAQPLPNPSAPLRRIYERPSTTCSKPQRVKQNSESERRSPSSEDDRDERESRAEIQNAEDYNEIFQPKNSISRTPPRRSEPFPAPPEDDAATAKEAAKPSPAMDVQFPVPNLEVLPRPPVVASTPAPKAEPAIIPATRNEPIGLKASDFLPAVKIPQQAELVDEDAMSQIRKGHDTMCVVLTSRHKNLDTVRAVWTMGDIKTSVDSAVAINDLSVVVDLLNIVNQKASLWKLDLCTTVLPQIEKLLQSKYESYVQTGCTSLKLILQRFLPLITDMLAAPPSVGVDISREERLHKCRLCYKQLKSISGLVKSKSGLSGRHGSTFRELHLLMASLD

Row | Target | thermal stability z-score (potassium arsenate) | thermal stability z-score (lipoamide; [1]) | thermal stability z-score (lipoamide; arsenate co-treatment: none)
1 | ITPR3 (UniProt Q14573) | -0.418 | -1.24 | -0.526
2 | ITPRIP (UniProt Q8IWB1) | -0.289 | -0.976 | -0.936
3 | ITPRIPL2 (UniProt Q3MIP1) | -0.0231 | -0.176 | -0.34
4 | ITSN1 (UniProt Q15811) | 0.365 | -0.734 | -0.15
5 | ITSN2 (UniProt Q9NZM3) | -0.725 | -0.803 | -1.23
6 | IVD (UniProt P26440) | 0.902 | 0.0798 | -0.0801
7 | IVNS1ABP (UniProt Q9Y6Y0) | -0.145 | 0.601 | 0.743
8 | IWS1 (UniProt Q96ST2) | 0.949 | -0.094 | 0.636
9 | JADE3 (UniProt Q92613) | -0.474 | -0.12 | 0.143
10 | JAK1 (UniProt P23458) | 0.123 | -0.359 | 0.296
11 | JMJD1C (UniProt Q15652) | -0.398 | 0.559 | -0.396
12 | JMJD4 (UniProt Q9H9V9) | 0.0203 | 0.073 | 0.027
13 | JMJD6 (UniProt Q6NYC1) | 0.606 | -0.363 | 0.15
14 | JMY (UniProt Q8N9B5) | -0.323 | -0.0736 | -0.168
15 | JPH1 (UniProt Q9HDC5) | -0.105 | 0.0376 | 0.0934
16 | JTB (UniProt O76095) | 0.688 | 0.634 | 0.0713
17 | JUNB (UniProt P17275) | -1.55 | 0.208 | 0.791
18 | JUP (UniProt P14923) | 1.07 | 2.23 | 2.78
19 | KANK1 (UniProt Q14678) | 0.739 | 0.282 | 0.616
20 | KANK2 (UniProt Q63ZY3) | -0.109 | -0.0369 | 0.0732
21 | KARS (UniProt Q15046) | 1.5 | -0.646 | -0.663
22 | KAT7 (UniProt O95251) | -0.144 | 0.116 | -0.0536
23 | KAT8 (UniProt Q9H7Z6) | -0.509 | 0.773 | -0.409
24 | KATNA1 (UniProt O75449) | -0.539 | -0.664 | 0.155
25 | KATNAL1 (UniProt Q9BW62) | -0.0764 | 0.798 | -0.886
26 | KATNB1 (UniProt Q9BVA0) | -0.452 | 0.145 | 0.401
27 | KATNBL1 (UniProt Q9H079) | 0.427 | 0.226 | 0.62
28 | KBTBD2 (UniProt Q8IY47) | -0.0698 | -0.0161 | -0.0919

Row | Target | thermal stability z-score (potassium arsenate) | thermal stability z-score (lipoamide; [1]) | thermal stability z-score (lipoamide; arsenate co-treatment: none)
29 | KBTBD4 (UniProt Q9NVX7) | 0.259 | 0.389 | -0.408
30 | KBTBD6 (UniProt Q86V97) | -1.11 | -0.502 | 0.182
31 | KCMF1 (UniProt Q9P0J7) | 0.636 | -0.251 | -0.483
32 | KCNAB2 (UniProt Q13303) | 0.237 | 0.221 | 0.281
33 | KCNK1 (UniProt O00180) | -1.18 | -1.31 | 0.686
34 | KCTD1 (UniProt Q719H9) | -1.07 | 1.16 | 0.0871
35 | KCTD3 (UniProt Q9Y597) | -0.15 | 0.366 | 0.263
36 | KCTD5 (UniProt Q9NXV2) | -1.43 | -1.92 | -1.4
37 | KCTD9 (UniProt Q7L273) | -0.315 | 0.34 | 0.375
38 | KCTD10 (UniProt Q9H3F6) | 1.06 | 0.997 | 0.63
39 | KCTD12 (UniProt Q96CX2) | 1.37 | 0.867 | 0.7
40 | KCTD15 (UniProt Q96SI1) | -0.89 | -0.377 | -0.174
41 | KCTD20 (UniProt Q7Z5Y7) | -0.0752 | -0.132 | -0.0693
42 | KDELC1 (UniProt Q6UW63) | 0.422 | -2.9 | -2.19
43 | KDELC2 (UniProt Q7Z4H8) | 0.334 | -4.05 | -2.72
44 | KDM1A (UniProt O60341) | -1.3 | 1.9 | 2.21
45 | KDM3A (UniProt Q9Y4C1) | -0.0481 | 0.00835 | -0.0932
46 | KDM3B (UniProt Q7LBC6) | 0.0976 | 0.258 | -0.0129
47 | KDM4A (UniProt O75164) | -0.178 | -0.16 | -0.11
48 | KDM5C (UniProt P41229) | -0.2 | 0.0486 | -0.0414
49 | KDSR (UniProt Q06136) | 0.275 | 0.0293 | 0.264
50 | KEAP1 (UniProt Q14145) | 4.65 | 2.32 | 2.11
51 | KHDRBS1 (UniProt Q07666) | -1.16 | -0.091 | 0.104
52 | KHSRP (UniProt Q92945) | 0.486 | 0.21 | 0.161
53 | KIAA0101 (UniProt Q15004) | 0.49 | 0.253 | 0.245
54 | KIAA0196 (UniProt Q12768) | 0.0921 | -0.101 | 0.0446
55 | KIAA0319L (UniProt Q8IZA0) | -0.349 | 0.936 | 0.43
